Laboratory results as given in US5043450A, “8-alkoxyquinolonecarboxylic acid and salts thereof” (priority 1986, dated 1991).
Values after ≈ are worked out from the molar mass of the structure shown.

Columns and labels:
Assay type in all cases: cell-based
[1] = system: Citrobacter freundii IID 976; assay: Antibacterial spectra, MIC; conditions: IID976, 10^6 cells/ml, Gram -, read-out: MIC
P. mirabilis IID 994 = assay: Antibacterial spectra, MIC; conditions: Proteus mirabilis, IID994; 10^6 cells/ml; Gram -; read-out: MIC
P. cepacia GIFU 518 = assay: Antibacterial spectra, MIC; conditions: Burkholderia cepacia, GIFU518; 10^6 cells/ml; Gram -; read-out: MIC
[2] = system: Bacteroides fragilis GM 7000; assay: Antibacterial spectra, MIC; conditions: GM7000
P. aeruginosa IFO 12689 = assay: Antibacterial spectra, MIC; conditions: Pseudomonas aeruginosa, IFO12689; 10^6 cells/ml; Gram -; read-out: MIC
C. ramosum = assay: Antibacterial spectra, MIC; conditions: Thomasclavelia ramosa
[3] = system: Salmonella enteritidis IID 604; assay: Antibacterial spectra, MIC; conditions: Salmonella enterica; 10^6 cells/ml; Gram -; read-out: MIC
[4] = system: Pseudomonas aeruginosa V-1; assay: Antibacterial spectra, MIC; conditions: V1
[5] = system: Morganella morganii IID 602; assay: Antibacterial spectra, MIC; conditions: IID602, 10^6 cells/ml, Gram -, read-out: MIC
C. perfringens KYA 13123 = assay: microbe, parasite or virus in culture; conditions: Clostridium perfringens, KYA13123
[6] = system: Klebsiella pneumoniae KY(GN)6445; assay: Antibacterial spectra, MIC; conditions: 10^6 cells/ml, Gram -, read-out: MIC
[7] = system: Serratia marcescens IID 618; assay: Antibacterial spectra, MIC; conditions: IID618, 10^6 cells/ml, Gram -, read-out: MIC
[8] = system: Peptostreptococcus anaerobius KYA 27337; assay: Antibacterial spectra, MIC; conditions: KYA27337, 10^6 cells/ml, Gram +, read-out: MIC
P. aeruginosa IID 1210 = assay: Antibacterial spectra, MIC; conditions: Pseudomonas aeruginosa, IID1210; 10^6 cells/ml; Gram -; read-out: MIC
S. epidermidis IID 866 = assay: Antibacterial spectra, MIC; conditions: Staphylococcus epidermidis, IID866; 10^6 cells/ml; Gram +; read-out: MIC
[9] = system: Veillonella parvula KYA 10790; assay: Antibacterial spectra, MIC; conditions: KYA10790
[10] = system: Yersinia enterocolitica IID 981; assay: Antibacterial spectra, MIC; conditions: IID981, 10^6 cells/ml, Gram -, read-out: MIC
B. fragilis 25285 = assay: Antibacterial spectra, MIC; conditions: Bacteroides fragilis
[11] = system: Staphylococcus aureus 209 P; assay: Antibacterial spectra, MIC; conditions: 10^6 cells/ml, Gram +, read-out: MIC
[12] = system: B. thetaiotaomicron (0661); assay: Antibacterial spectra, MIC; conditions: Bacteroides thetaiotaomicron; 10^6 cells/ml; Gram -; read-out: MIC
F. necrophorum S-45 = assay: Antibacterial spectra, MIC; conditions: Fusobacterium necrophorum, S45; 10^6 cells/ml; Gram -; read-out: MIC
S. aureus Smith = assay: Antibacterial spectra, MIC; conditions: Staphylococcus aureus; 10^6 cells/ml; Gram +; read-out: MIC
[13] = system: Propionibacterium acens 11828; assay: Antibacterial spectra, MIC; conditions: 10^6 cells/ml, Gram +, read-out: MIC
Bacilus subtilis PCI 219 = assay: Antibacterial spectra, MIC; conditions: Bacillus subtilis, PCI219
[14] = system: Alcaligenes faecalis 0114002; assay: Antibacterial spectra, MIC
E. coli ML 4707 = assay: Antibacterial spectra, MIC; conditions: Escherichia coli, ML4707; 10^6 cells/ml; Gram -
Description: (§1) The antibacterial test was carried out according to the method designated by Japan Society of Chemotherapy.

Shigella sonnei IID 969 = assay: Antibacterial spectra, MIC; conditions: IID969, 10^6 cells/ml, Gram -
Description: as §1

[15] = system: Proteus vulgaris IFO 3167; assay: Antibacterial spectra, MIC; conditions: IFO3167, 10^6 cells/ml, Gram -
Description: as §1

B. distasonis 8503 = assay: Antibacterial spectra, MIC; conditions: Parabacteroides distasonis
[16] = system: Clostridium difficile I-E; assay: Antibacterial spectra, MIC; conditions: Clostridioides difficile; 10^6 cells/ml; Gram +; read-out: MIC
[17] = system: S. aureus IID 670 (Terajima); assay: Antibacterial spectra, MIC; conditions: Staphylococcus aureus, IID670; 10^6 cells/ml; Gram +; read-out: MIC
[18] = system: Enterobacter cloacae IID 977; assay: Antibacterial spectra, MIC; conditions: IID977, 10^6 cells/ml, Gram -, read-out: MIC
[19] = system: Escherichia coli NIHJ JC-2; assay: Antibacterial spectra, MIC; conditions: NIHJJC2
[20] = system: Peptococcus magnus KY 017; assay: Antibacterial spectra, MIC; conditions: Finegoldia magna, KY017; 10^6 cells/ml; Gram +; read-out: MIC
P. maltophilia GIFU 2491 = assay: Antibacterial spectra, MIC; conditions: Stenotrophomonas maltophilia, GIFU2491; 10^6 cells/ml; Gram -; read-out: MIC
[21] = system: Acinetobacter anitratus IID 876; assay: Antibacterial spectra, MIC; conditions: Acinetobacter calcoaceticus, IID876; 10^6 cells/ml; Gram -; read-out: MIC
B. vulgatus KYA 29327 = assay: Antibacterial spectra, MIC; conditions: Phocaeicola vulgatus, KYA29327
K. pneumoniae 1-220S = assay: Antibacterial spectra, MIC; conditions: Klebsiella pneumoniae, 1220S; 10^6 cells/ml; Gram -; read-out: MIC
F. varium KYA 8501 = assay: Antibacterial spectra, MIC; conditions: Fusobacterium varium, KYA8501; 10^6 cells/ml; Gram -; read-out: MIC
B. fragilis 0558 = assay: Antibacterial spectra, MIC; conditions: Bacteroides fragilis, 10^6 cells/ml, Gram -, read-out: MIC
[22] = system: Eubacterium lentum GAI 5242; assay: Antibacterial spectra, MIC; conditions: Eggerthella lenta, GAI5242; 10^6 cells/ml; Gram +; read-out: MIC
E. coli ATCC 10536 = assay: Antibacterial spectra, MIC; conditions: Escherichia coli, ATCC10536
Pst. micros UPI 5464-1 = assay: Antibacterial spectra, MIC; conditions: Parvimonas micra, UPI54641
[23] = system: Fusobacterium mortiferum 4249; assay: Antibacterial spectra, MIC; conditions: 10^6 cells/ml, Gram -, read-out: MIC

COc1c(N2CCN(C)CC2)c(F)cc2c(=O)c(C(=O)O)cn(C3CC3)c12 [Exp. 2, 1-cyclopropyl-6-fluoro-1,4-dihydro-8-methoxy-7-(4-methyl-1-piperazinyl)-4-oxo-3-quinolinecarboxylic acid]
MIC [1]: 0.05 µg/mL (≈ 0.133 µM) | MIC (P. mirabilis IID 994): 0.05 µg/mL (≈ 0.133 µM) | MIC (P. cepacia GIFU 518): 1.56 µg/mL (≈ 4.16 µM) | MIC [2]: 0.39 µg/mL (≈ 1.04 µM) | MIC (P. aeruginosa IFO 12689): 1.56 µg/mL (≈ 4.16 µM) | MIC (C. ramosum): 3.13 µg/mL (≈ 8.34 µM) | MIC [3]: 0.1 µg/mL (≈ 0.266 µM) | MIC [4]: 0.39 µg/mL (≈ 1.04 µM) | MIC [5]: 0.1 µg/mL (≈ 0.266 µM) | MIC (C. perfringens KYA 13123): 0.39 µg/mL (≈ 1.04 µM) | MIC [6]: 0.05 µg/mL (≈ 0.133 µM) | MIC [7]: 0.1 µg/mL (≈ 0.266 µM) | MIC [8]: 0.78 µg/mL (≈ 2.08 µM) | MIC (P. aeruginosa IID 1210): 1.56 µg/mL (≈ 4.16 µM) | MIC (S. epidermidis IID 866): 0.1 µg/mL (≈ 0.266 µM) | MIC [9]: 0.39 µg/mL (≈ 1.04 µM) | MIC [10]: 0.1 µg/mL (≈ 0.266 µM) | MIC (B. fragilis 25285): 0.39 µg/mL (≈ 1.04 µM) | MIC [11]: 0.1 µg/mL (≈ 0.266 µM) | MIC [12]: 1.56 µg/mL (≈ 4.16 µM) | MIC (F. necrophorum S-45): 0.78 µg/mL (≈ 2.08 µM) | MIC (S. aureus Smith): 0.1 µg/mL (≈ 0.266 µM) | MIC [13]: 6.25 µg/mL (≈ 16.6 µM) | MIC (Bacilus subtilis PCI 219): 0.025 µg/mL (≈ 0.0666 µM) | MIC [14]: 0.39 µg/mL (≈ 1.04 µM) | MIC (E. coli ML 4707): 0.025 µg/mL (≈ 0.0666 µM) | MIC (Shigella sonnei IID 969): 0.025 µg/mL (≈ 0.0666 µM) | MIC [15]: 0.025 µg/mL (≈ 0.0666 µM) | MIC (B. distasonis 8503): 0.39 µg/mL (≈ 1.04 µM) | MIC [16]: 1.56 µg/mL (≈ 4.16 µM) | MIC [17]: 0.1 µg/mL (≈ 0.266 µM) | MIC [18]: 0.1 µg/mL (≈ 0.266 µM) | MIC [19]: 0.0125 µg/mL (≈ 0.0333 µM) | MIC [20]: 0.2 µg/mL (≈ 0.533 µM) | MIC (P. maltophilia GIFU 2491): 0.2 µg/mL (≈ 0.533 µM) | MIC [21]: 0.1 µg/mL (≈ 0.266 µM) | MIC (B. vulgatus KYA 29327): 0.39 µg/mL (≈ 1.04 µM) | MIC (K. pneumoniae 1-220S): 0.1 µg/mL (≈ 0.266 µM) | MIC (F. varium KYA 8501): 6.25 µg/mL (≈ 16.6 µM) | MIC (B. fragilis 0558): 0.2 µg/mL (≈ 0.533 µM) | MIC [22]: 0.2 µg/mL (≈ 0.533 µM) | MIC (E. coli ATCC 10536): 0.025 µg/mL (≈ 0.0666 µM) | MIC (Pst. micros UPI 5464-1): 0.39 µg/mL (≈ 1.04 µM) | MIC [23]: 0.78 µg/mL (≈ 2.08 µM)
